From ChEMBL document CHEMBL1697731, “Cheminformatics analysis of assertions mined from literature that describe drug-induced liver injury in different species” (Chem Res Toxicol, 2010)

Experiments:
[1] = test system: Hepatotoxicity; test: Literature-mined compound from Fourches et al multi-species drug-induced liver injury (DILI) dataset, effect in rodents; conditions: rodentia
[2] = test system: Hepatotoxicity; test: Literature-mined compound from Fourches et al multi-species drug-induced liver injury (DILI) dataset, effect in humans; conditions: human
[3] = test system: Hepatotoxicity; test: Literature-mined compound from Fourches et al multi-species drug-induced liver injury (DILI) dataset, effect in non-rodents

| Compound | Hepatotoxicity [1] | Hepatotoxicity [2] | Hepatotoxicity [3] | Hepatotoxicity ([1]; Liver) | Hepatotoxicity ([2]; Liver) | Hepatotoxicity ([3]; Liver) |
| --- | --- | --- | --- | --- | --- | --- |
| Nc1ccn(C[C@@H](CO)OCP(=O)(O)O)c(=O)n1.O.O [CIDOFOVIR] | no drug-induced liver injury reported | drug-induced liver injury reported | no drug-induced liver injury reported |  |  |  |
| CN/C(=N/CCSCc1nc[nH]c1C)NC#N [CIMETIDINE] |  |  |  | drug-induced liver injury reported | drug-induced liver injury reported | drug-induced liver injury reported |
| O=C(O)c1cc(-c2ccccc2)nc2ccccc12 [CINCHOPHEN] | no drug-induced liver injury reported | drug-induced liver injury reported | drug-induced liver injury reported |  |  |  |
| CCn1nc(C(=O)O)c(=O)c2cc3c(cc21)OCO3 [CINOXACIN] | no drug-induced liver injury reported | drug-induced liver injury reported | no drug-induced liver injury reported |  |  |  |
| CC(C)(Oc1ccc(C2CC2(Cl)Cl)cc1)C(=O)O (centres undefined) [CIPROFIBRATE] | drug-induced liver injury reported | drug-induced liver injury reported | drug-induced liver injury reported |  |  |  |
| O=C(O)c1cn(C2CC2)c2cc(N3CCNCC3)c(F)cc2c1=O [CIPROFLOXACIN] |  |  |  | drug-induced liver injury reported | drug-induced liver injury reported | no drug-induced liver injury reported |
| COc1cc(N)c(Cl)cc1C(=O)NC1CCN(CCCOc2ccc(F)cc2)CC1OC (centres undefined) [CISAPRIDE] | no drug-induced liver injury reported | drug-induced liver injury reported | no drug-induced liver injury reported |  |  |  |
| CN(C)CCCC1(c2ccc(F)cc2)OCc2cc(C#N)ccc21 (centres undefined) [CITALOPRAM] | drug-induced liver injury reported | no drug-induced liver injury reported | no drug-induced liver injury reported |  |  |  |
| O=C(O)CC(O)(CC(=O)O)C(=O)O [CITRIC ACID] | drug-induced liver injury reported | no drug-induced liver injury reported | no drug-induced liver injury reported |  |  |  |
| Nc1nc(Cl)nc2c1ncn2[C@H]1C[C@H](O)[C@@H](CO)O1 [CLADRIBINE] | no drug-induced liver injury reported | drug-induced liver injury reported | no drug-induced liver injury reported |  |  |  |
| CC[C@H]1OC(=O)[C@H](C)[C@@H](O[C@H]2C[C@@](C)(OC)[C@@H](O)[C@H](C)O2)[C@H](C)[C@@H](O[C@@H]2O[C@H](C)C[C@H](N(C)C)[C@H]2O)[C@](C)(OC)C[C@@H](C)C(=O)[C@H](C)[C@@H](O)[C@]1(C)O [CLARITHROMYCIN] | drug-induced liver injury reported | drug-induced liver injury reported | no drug-induced liver injury reported |  |  |  |
| O=C(O)[C@H]1/C(=C/CO)O[C@@H]2CC(=O)N21 [CLAVULANIC ACID] | no drug-induced liver injury reported | drug-induced liver injury reported | no drug-induced liver injury reported |  |  |  |
| CCC[C@@H]1C[C@@H](C(=O)N[C@@H]([C@H]2O[C@H](SC)[C@H](O)[C@@H](O)[C@H]2O)[C@H](C)Cl)N(C)C1 [CLINDAMYCIN] | no drug-induced liver injury reported | drug-induced liver injury reported | no drug-induced liver injury reported |  |  |  |
| Oc1c(I)cc(Cl)c2cccnc12 [CLIOQUINOL] | drug-induced liver injury reported | no drug-induced liver injury reported | no drug-induced liver injury reported |  |  |  |
| CN1C(=O)CC(=O)N(c2ccccc2)c2cc(Cl)ccc21 [CLOBAZAM] | no drug-induced liver injury reported | drug-induced liver injury reported | no drug-induced liver injury reported |  |  |  |
| O=P(O)(O)C(Cl)(Cl)P(=O)(O)O [CLODRONIC ACID] | drug-induced liver injury reported | no drug-induced liver injury reported | no drug-induced liver injury reported |  |  |  |
| Nc1nc(Cl)nc2c1ncn2[C@@H]1O[C@H](CO)[C@@H](O)[C@@H]1F [CLOFARABINE] | no drug-induced liver injury reported | drug-induced liver injury reported | no drug-induced liver injury reported |  |  |  |
| CC(C)/N=c1\cc2n(-c3ccc(Cl)cc3)c3ccccc3nc-2cc1Nc1ccc(Cl)cc1 [CLOFAZIMINE] | no drug-induced liver injury reported | drug-induced liver injury reported | no drug-induced liver injury reported |  |  |  |
| CCOC(=O)C(C)(C)Oc1ccc(Cl)cc1 [CLOFIBRATE] | drug-induced liver injury reported | drug-induced liver injury reported | drug-induced liver injury reported |  |  |  |
| Cc1ncsc1CCCl [CLOMETHIAZOLE] | drug-induced liver injury reported | drug-induced liver injury reported | no drug-induced liver injury reported |  |  |  |
| Clc1cccc(Cl)c1N=C1NCCN1 [CLONIDINE] |  |  |  | drug-induced liver injury reported | drug-induced liver injury reported | no drug-induced liver injury reported |
| COC(=O)[C@H](c1ccccc1Cl)N1CCc2sccc2C1 [CLOPIDOGREL] |  |  |  | drug-induced liver injury reported | drug-induced liver injury reported | no drug-induced liver injury reported |
| CCc1cc2c(s1)N(C)C(=O)CN=C2c1ccccc1Cl [CLOTIAZEPAM] | no drug-induced liver injury reported | drug-induced liver injury reported | no drug-induced liver injury reported |  |  |  |
| Clc1ccccc1C(c1ccccc1)(c1ccccc1)n1ccnc1 [CLOTRIMAZOLE] | drug-induced liver injury reported | no drug-induced liver injury reported | no drug-induced liver injury reported |  |  |  |
| CN1CCN(C2=Nc3cc(Cl)ccc3Nc3ccccc32)CC1 [CLOZAPINE] | no drug-induced liver injury reported | drug-induced liver injury reported | no drug-induced liver injury reported |  |  |  |
| COC(=O)[C@H]1[C@@H](OC(=O)c2ccccc2)C[C@@H]2CC[C@H]1N2C [COCAINE] | drug-induced liver injury reported | drug-induced liver injury reported | no drug-induced liver injury reported |  |  |  |
| COc1ccc2c3c1O[C@H]1[C@@H](O)C=C[C@H]4[C@@H](C2)N(C)CC[C@@]341 [CODEINE] |  |  |  | drug-induced liver injury reported | drug-induced liver injury reported | no drug-induced liver injury reported |
| COc1cc2c(c(OC)c1OC)-c1ccc(OC)c(=O)cc1[C@@H](NC(C)=O)CC2 [COLCHICINE] | drug-induced liver injury reported | drug-induced liver injury reported | no drug-induced liver injury reported |  |  |  |
